Bridge positions count the residues as written; N and C are the ends. Peptide text beside a SMILES is read from it. * marks the point of attachment. FITC = O=C1OC2(c3ccc(O)cc3Oc3cc(O)ccc32)c2ccc(NC(=S)*)cc21
Assays:
HAECs = assay: Endothelial cell lumen formation in 3D collagen gel; assay type: cell-based, human; conditions: high glucose and TGFβ1
Description: A 3D collagen gel model was used to evaluate endothelial cell lumen formation under high glucose and TGFβ1 conditions. Briefly, the collagen gel was formed by mixing 4 mg/ml of rat tail type I collagen solution (Life Technologies), FBS, DMEM, and NaOH. Then 500 μL of the mixture was transferred to a 48-well plate and placed in a 37° C. incubator for 30 minutes to allow gelation. HAECs were then seeded into the collagen gel at a density of 2×10^4 cells/well. TGFβ1 (10 ng/ml) or TGFβ1 (10 ng/ml)/PTβR2I (10 μg/mL) was then added. After three days of culturing, cells were stained with F-actin (Abcam, ab176753) and DAPI (Millipore-Sigma). The constructs were imaged by
Olympus FV1200 confocal microscopy with z-stack mode. The lumen density was calculated from the images.

HDFs = assay: Cell proliferation (dsDNA) under high glucose and TGFβ1, HDF; assay type: cell-based, human; conditions: high glucose, TGFβ1 10 ng/ml, PTβR2I 10 μg/mL; p<0.001
Description: HDFs, HaCaTs, and HAECs were seeded in 96-well plates at respective densities of 1.5×10^4 cells/mL, 2×10^4 cells/mL, and 2×10^4 cells/mL. High glucose (4.5 g/L) basal medium with 1% P/S was used for the culture. After 24 hours, TGFβ1 (10 ng/ml) or TGFβ1 (10 ng/ml)/PTβR2I (10 μg/mL) was added to the medium. The culture continued for three days. The medium was then replaced by papain solution and incubated at 60° C. for 24 hours. The dsDNA content was tested using a Quant-iT™ PicoGreen dsDNA Assay Kit (Invitrogen).

TβR2 on the HDFs = target: T1, TβR2 on the HDFs (Homo sapiens, UniProt P37173); assay: Bioactivity of released PTβR2I (cell binding assay on HDFs); assay type: cell-based; conditions: released on days 3, 8, 14; loadings 10, 20, 50 μg/mL
T1 construct: host or cells: human dermal fibroblasts (HDFs)
T1 sequence (P37173 23-567): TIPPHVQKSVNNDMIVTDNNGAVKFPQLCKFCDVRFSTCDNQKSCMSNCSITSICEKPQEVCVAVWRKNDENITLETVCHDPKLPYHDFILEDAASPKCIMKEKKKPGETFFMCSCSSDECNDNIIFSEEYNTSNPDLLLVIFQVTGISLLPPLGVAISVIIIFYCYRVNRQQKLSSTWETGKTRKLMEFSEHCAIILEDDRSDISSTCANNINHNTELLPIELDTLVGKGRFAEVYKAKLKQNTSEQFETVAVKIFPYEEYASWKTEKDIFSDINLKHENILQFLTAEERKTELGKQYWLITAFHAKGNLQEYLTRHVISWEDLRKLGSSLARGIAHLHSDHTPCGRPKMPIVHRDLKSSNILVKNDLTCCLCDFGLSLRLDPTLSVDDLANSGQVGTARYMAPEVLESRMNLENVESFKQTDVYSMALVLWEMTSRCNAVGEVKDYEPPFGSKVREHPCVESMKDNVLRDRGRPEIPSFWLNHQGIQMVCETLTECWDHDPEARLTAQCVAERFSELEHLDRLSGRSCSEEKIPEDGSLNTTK
Description: Wound dressings were fabricated by encapsulating PTβR2I in the hydrogel solution at 4° C. Briefly, PTβR2I solution was mixed with 6 wt. % hydrogel solution to reach final PTβR2I concentrations of 10 μg/mL, 20 μg/mL and 50 μg/mL. The mixtures were stirred at 4° C. for 12 hours. To determine PTβR2I release kinetics, the mixtures were first incubated at 37° C. to gel. After 1 hour, the supernatant was replaced by a release medium (DPBS with 1% P/S). The medium was then collected at pre-determined time points for 21 days, and a fresh release medium was added after each collection. The concentration of the released PTβR2I was determined by measuring the fluorescence intensity and calculating the corresponding concentration using a standard curve. The bioactivity of the released PTβR2I was evaluated by its ability to bind to the TβR2 on the HDFs. The collected released medium was added to the culture medium of HDFs that were seeded in a 96-well plate. After 2 hours of incubation, the cells were washed three times with DPBS, and the fluorescence intensity was measured using a microplate reader (excitation/emission=485/535 nm).

HaCaTs = assay: mRNA expression (RT-PCR), HaCaTs; assay type: cell-based, human; conditions: high glucose and TGFβ1
Description: To determine the mRNA expression of the cells (HDFs, HaCaTs, and HAECs) treated with TGFβ1 (10 ng/ml) or TGFβ1 (10 ng/ml)/PTβR2I (10 μg/mL) under high glucose conditions, RNA was extracted using Trizol (Invitrogen) and reverse transcribed using a cDNA synthesis kit (Applied Biosystems). Gene expression was performed by real-time RT-PCR, using Maxima SYBR Green/Fluorescein Master Mix (Thermofisher) and selected primer pairs, shown in Table 1 below. β-actin served as the housekeeping gene. The ΔΔCt method was used for data analysis.

TβR2 on HDFs = target: T2, TβR2 on HDFs (Homo sapiens, UniProt P37173); assay: PTβR2I binding and competitive binding with TGFβ1 on HDFs (IF anti-TβR2, FITC intensity); assay type: cell-based; conditions: 48 hours
T2 construct: host or cells: human dermal fibroblasts (HDFs)
T2 sequence (P37173 23-567): as above
Description: To test PTβR2I binding to cells, HDFs (Lonza) were seeded on type I collagen-coated cover glasses and inserted in a 6-well plate. After 24 hours, the following treatments were added into the wells: 1) PTβR2I solution (10 μg/mL) for 48 hours; 2) PTβR2I solution (10 μg/mL) for 24 hours, and then TGFβ1 (10 ng/ml) for another 24 hours; 3) TGFβ1 (10 ng/mL) for 24 hours, and then PTβR2I (10 μg/mL) for another 24 hours; and 4) both PTβR2I (10 μg/mL) and TGFβ1 (10 ng/ml) for 48 hours. Control wells contained HDF-seeded cover glasses without added PTβR2I or TGFβ1, and incubated for 48 hours. After the treatment, cells were fixed by 4% paraformaldehyde and blocked with 10% goat serum in Dulbecco's phosphate-buffered saline (DPBS). Primary antibody mouse anti-TβR2 (1:300, Santa Cruz) that was diluted in DPBS containing 3% BSA was incubated with the cells overnight at 4° C. The cells were washed three times with DPBS. A secondary antibody Alexa Fluro-647 (1:300, Fisher Scientific) was then applied for 2 h at room temperature, followed by incubating with DAPI (Millipore-Sigma) for five minutes.
To validate the above results, the fluorescence intensity of PTβR2I bound to the HDFs was measured for each treatment. Briefly, HDFs (Lonza) were seeded on type I collagen-coated 96-well black microplates. […] The fluorescence intensity was measured using the same microplate reader.

## CC(C)C[C@@H]1NC(=O)CNC(=O)[C@@H](NC(=O)[C@@H](N)CCC(=O)O)CSSC[C@@H](C(=O)N[C@@H](CCCCNC(=S)Nc2ccc3c(c2)C(=O)OC32c3ccc(O)cc3Oc3cc(O)ccc32)C(=O)O)NC(=O)[C@H](CC(C)C)NC(=O)[C@H](CCCNC(=N)N)NC(=O)[C@H](Cc2c[nH]c3ccccc23)NC(=O)[C@H](C(C)C)NC(=O)[C@H](CCCNC(=N)N)NC(=O)[C@H](CC(=O)O)NC(=O)[C@@H]2CCCN2C(=O)[C@H](CCCNC(=N)N)NC(=O)CNC(=O)[C@H](C(C)C)NC(=O)[C@@H]2CCCN2C(=O)[C@H](CC(C)C)NC1=O [PTβR2I, ECGLLPVGRPDRVWRLCK-FITC] (H-ECGLLPVGRPDRVWRLCK(FITC)-OH; disulfide 2-17; N-terminus and C-terminus assumed)
HAECs
  lumen density: significantly increased the lumen density
HDFs
  proliferation (dsDNA, day 3): Significantly improved proliferation
TβR2 on the HDFs
  bioactivity of released PTβR2I: remained bioactive
HaCaTs
  IL1B mRNA expression: significantly reduced
  IL6 mRNA expression: significantly reduced
TβR2 on HDFs
  fluorescent intensities of FITC-labeled PTβR2I whichever of PTβR2I or TGFβ1 bound first: consistent

From US20240181125A1, “COMPOSITIONS AND METHODS FOR SCARLESS WOUND HEALING IN DIABETES” (Washington University, priority 2022, published 2024)
